# Measurements published in patent US9212184B2, “6-thio-substituted imidazo[1,2-a]pyrazines as Mps-1 inhibitors” (BAYER INTELLECTUAL PROPERTY GMBH, priority 2010, dated 2015).
# Target: human kinase Mps-1 (Homo sapiens (Human), UniProt P33981)
# Experiment: Mps-1 kinase assay (TR-FRET)
# Assay type: biochemical
# Details: N-terminally GST-tagged human full length recombinant Mps-1; 10 μM ATP; 1 μM peptide substrate; 60 min at 22° C.; read-out: Mps1 IC50
# Description: The human kinase Mps-1 phosphorylates a biotinylated substrate peptide. Detection of the phosphorylated product is achieved by time-resolved fluorescence resonance energy transfer (TR-FRET) from Europium-labelled anti-phospho-Serine/Threonine antibody as donor to streptavidin labelled with cross-linked allophycocyanin (SA-XLent) as acceptor. Compounds are tested for their inhibition of the kinase activity.
# N-terminally GST-tagged human full length recombinant Mps-1 kinase (purchased from Invitrogen, Karslruhe, Germany, cat. no PV4071) was used. As substrate for the kinase reaction a biotinylated peptide of the amino-acid sequence PWDPDDADITEILG (C-terminus in amide form, purchased from Biosynthan GmbH, Berlin) was used.
# For the assay 50 nL of a 100-fold concentrated solution of the test compound in DMSO was pipetted into a black low volume 384 well microtiter plate (Greiner Bio-One, Frickenhausen, Germany), 2 μl of a solution of Mps-1 in assay buffer [0.1 mM sodium-ortho-vanadate, 10 mM MgCl2, 2 mM DTT, 25 mM Hepes pH 7.7, 0.05% BSA, 0.001% Pluronic F-127] were added and the mixture was incubated for 15 min at 22° C. to allow pre-binding of the test compounds to Mps-1 before the start of the kinase reaction. […]
# The resulting mixture was incubated 1 h at 22° C. to allow the binding of the phosphorylated peptide to the anti-phospho(Ser/Thr)-Europium-antibody. Subsequently the amount of phosphorylated substrate was evaluated by measurement of the resonance energy transfer from the Europium-labelled anti-phospho(Ser/Thr) antibody to the Streptavidin-XLent. Therefore, the fluorescence emissions at 620 nm and 665 nm after excitation at 350 nm was measured in a Viewlux TR-FRET reader (PerkinElmer LAS, Rodgau-Jügesheim, Germany). The “blank-corrected normalized ratio” (a Viewlux specific readout, similar to the traditional ratio of the emissions at 665 nm and at 622 nm, in which blank and Eu-donor crosstalk are subtracted from the 665 nm signal before the ratio is calculated) was taken as the measure for the amount of phosphorylated substrate. […]
# human kinase Mps-1, sequence (P33981 whole entry): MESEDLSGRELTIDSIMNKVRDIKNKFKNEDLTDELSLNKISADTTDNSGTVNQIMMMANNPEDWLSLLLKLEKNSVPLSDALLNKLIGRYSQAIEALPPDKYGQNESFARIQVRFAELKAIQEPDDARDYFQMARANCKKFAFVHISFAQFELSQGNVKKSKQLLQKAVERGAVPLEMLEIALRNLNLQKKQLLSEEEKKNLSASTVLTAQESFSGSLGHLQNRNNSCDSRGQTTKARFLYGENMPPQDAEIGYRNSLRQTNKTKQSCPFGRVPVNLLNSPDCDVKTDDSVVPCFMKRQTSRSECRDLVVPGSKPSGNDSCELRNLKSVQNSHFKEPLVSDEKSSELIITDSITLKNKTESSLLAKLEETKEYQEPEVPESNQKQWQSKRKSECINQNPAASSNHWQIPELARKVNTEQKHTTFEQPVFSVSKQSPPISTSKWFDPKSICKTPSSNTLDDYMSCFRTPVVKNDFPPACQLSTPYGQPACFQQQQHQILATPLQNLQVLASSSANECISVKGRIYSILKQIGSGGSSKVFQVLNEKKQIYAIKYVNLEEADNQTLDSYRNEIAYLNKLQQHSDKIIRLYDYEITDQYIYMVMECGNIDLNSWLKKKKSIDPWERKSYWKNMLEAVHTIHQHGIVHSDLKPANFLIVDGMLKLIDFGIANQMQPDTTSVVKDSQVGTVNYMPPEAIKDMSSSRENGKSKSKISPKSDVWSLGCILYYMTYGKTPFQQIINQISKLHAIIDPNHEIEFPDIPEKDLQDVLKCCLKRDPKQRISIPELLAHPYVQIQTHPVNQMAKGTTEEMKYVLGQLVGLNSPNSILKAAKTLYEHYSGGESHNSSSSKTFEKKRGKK
row,IC50 [nM],Compound
1,5,"CSc1cn2c(-c3ccc(C(=O)NC4CC4)cc3)cnc2c(NCC(C)C)n1 [Example 1-2, N-cyclopropyl-4-{8-[(2-methylpropyl)amino]-6-(methylsulfanyl)imidazo[1,2-a]pyrazin-3-yl}benzamide]"
2,8.6,"CSc1cn2c(-c3ccc(C(=O)NC4CC4)c(C)c3)cnc2c(NCCC(F)(F)F)n1 [Example 1-3, N-cyclopropyl-2-methyl-4-{6-(methylsulfanyl)-8-[(3,3,3-trifluoropropyl)amino]imidazo[1,2-a]pyrazin-3-yl} benzamide]"
3,64.8,"CSc1cn2c(-c3ccc(C(=O)NC4CC4)c(C)c3)cnc2c(NCC(C)(C)O)n1 [Example 1-4, N-cyclopropyl-4-{8-[(2-hydroxy-2-methylpropyl)amino]-6-(methylsulfanyl)imidazo [1,2-a]pyrazin-3-yl}-2-methylbenzamide]"
